Values quoted from earlier work as cited in patent US6573290B1 (ILEX Oncology, Inc., priority 1999, dated 2003).

Assays:
tumor putrescine = conditions: DFMO infusion, rat-tumor model
Ki-ras mutations = conditions: AOM-treated rats; reduced from 90%
[1] = not given; remark: listed apart in the source
prostoglandin E2 (PGE2) = conditions: 300 mg/day, one month phase IIa trial

Structure (SMILES): NCCCC(N)(C(=O)O)C(F)F (racemic) [DFMO, 2-(difluoromethyl)-DL-ornithine]
- decrease in tumor putrescine levels (tumor putrescine): 90%
- number of tumors harboring Ki-ras mutations (Ki-ras mutations): 36%

Structure (SMILES): Cc1ccc(-c2cc(C(F)(F)F)nn2-c2ccc(S(N)(=O)=O)cc2)cc1 [celecoxib, 4-[5-(4-methyphenyl)-3-(trifluoromethyl)-1H-pyrazol-1-yl]benzenesulfonamide]
- time of peak plasma levels (after an oral dose): roughly 3 hours
- effective half-life (fasted conditions): roughly 11 hours
- dose excreted in feces (following a single dose): 57%
- dose excreted in urine (following a single dose): 27%
- delay of plasma levels with high fat meal (taken with a high fat meal): 1 to 2 h
- increase in total absorption with high fat meal (taken with a high fat meal): 10-20%
- protein binding (within the clinical dose range): highly protein bound

Structure (SMILES): CC[C@H]1OC(=O)[C@H](C)[C@@H](O[C@H]2C[C@@](C)(OC)[C@@H](O)[C@H](C)O2)[C@H](C)[C@@H](O[C@@H]2O[C@H](C)C[C@H](N(C)C)[C@H]2O)[C@](C)(OC)C[C@@H](C)C(=O)[C@H](C)[C@@H](O)[C@]1(C)O [clarithrymycin]
- adverse effect: pseudomembranous colitis [1]: 1%
- adverse effect: diarrhea ([1]; in vivo): 10%

Structure (SMILES): CC(C)Cc1ccc(C(C)C(=O)O)cc1 (stereo not shown) [ibuprofen]
- PGE2 levels in flat mucosa (prostoglandin E2 (PGE2)): significant decrease

Structure (SMILES): Cc1c(OCC(F)(F)F)ccnc1C[S+]([O-])c1nc2ccccc2[nH]1 (stereo not shown) [lansoprazole]
- adverse effect: diarrhea ([1]; in vivo): 8%
- adverse effect: headache ([1]; in vivo): 5%
- adverse effect: nausea ([1]; in vivo): 3%

Structure (SMILES): Cc1ncc([N+](=O)[O-])n1CCO [metronidazole]
- adverse effect: disulfiram-like reaction with alcohol ingestion ([1]; in vivo): 20%
- adverse effect: rash ([1]; in vivo): 5%

Structure (SMILES): COc1ccc2[nH]c([S+]([O-])Cc3ncc(C)c(OC)c3C)nc2c1 (stereo not shown) [omeprazole]
- adverse effect: dizziness ([1]; in vivo): 2%

Structure (SMILES): CN1C(C(=O)Nc2ccccn2)=C(O)c2ccccc2S1(=O)=O [piroxicam]
- number of tumors harboring Ki-ras mutations (Ki-ras mutations): 25%
